Reference: patent US20030175438A1, “Treatments of solid substrates to enhance durability of treatments placed thereon” (priority 2002, published 2003)

Assay: Bromphenol Blue (BPB) Extraction Method, spectrophotometric at 595 nm (modified CTM 0824), on treated fabric
Format: physicochemical
Conditions: for BOILED IN WATER % EXTRACTION / CHANGE / NO BOIL % EXTRACTION: Table XII; for % BPB EXTRACTION CHANGE / % EXTRACTION CHANGE / % BPB Extraction (change on boiling) / EXTRACTION CHANGE: boiled vs not boiled; for Boiling Durability - % BPB Extraction: Boil 30 min., Table XIV; for Strike Rate - % BPB Extraction: No Boil, Table XIII; for Boiled in H20 % Extraction / Change % Extraction / No Boil % Extraction: Table XI

CCCCCCCCCCCCCCCCCC[N+](C)(C)CCC[Si](OC)(OC)OC.[Cl-] [AMT, N, N-dimethyl-N-Octadecyl-3-(trimethoxysilyl)propanaminium chloride]
BOILED IN WATER % EXTRACTION (130° C./5 minutes): 27%
CHANGE (130° C./5 minutes): −34%
NO BOIL % EXTRACTION (130° C./5 minutes): 61%
CHANGE (130° C./30 minutes): −41%
NO BOIL % EXTRACTION (130° C./30 minutes): 68%
% Extraction @ 595 nm (ACRYLIC MODACRYLIC, boiled 30 minutes, Table IV): 45%
% BPB EXTRACTION CHANGE (ACRYLIC MODACRYLIC, Table IV): −46%
% Extraction @ 595 nm (ACRYLIC MODACRYLIC, not boiled, Table IV): 91%
Boiling Durability % BPB EXTRACTION @ 595 nm (ACRYLIC, boiled 30 minutes, Table XVII): 14%
% EXTRACTION CHANGE (ACRYLIC, Table XVII): −42%
Boiling Durability % BPB EXTRACTION @ 595 nm (ACRYLIC, not boiled, Table XVII): 56%
BOILED IN WATER % EXTRACTION (AIR DRIED): 37%
CHANGE (AIR DRIED): −38%
NO BOIL % EXTRACTION (AIR DRIED): 75%
% BPB EXTRACTION @ 595 nm (COTTON, boiled 30 minutes, Table III): 95%
% Extraction @ 595 nm (COTTON, boiled 30 minutes, Table IV): 94%
% Extraction @ 595 nm (COTTON, boiled 30 minutes, Table VI): 94%
% BPB EXTRACTION @ 595 nm (COTTON, boiled 30 minutes, Table XV): 92%
% EXTRACTION CHANGE (COTTON, Table III): −1%
% EXTRACTION CHANGE (COTTON, Table IX): −1%
% EXTRACTION CHANGE (COTTON, Table VII): +2%
% EXTRACTION CHANGE (COTTON, Table XV): −1%
% BPB EXTRACTION @ 595 nm (COTTON, boiled, Table IX): 92%
% BPB EXTRACTION @ 595 nm (COTTON, boiled, Table VII): 97%
% BPB EXTRACTION @ 595 nm (COTTON, not boiled, Table III): 96%
% Extraction @ 595 nm (COTTON, not boiled, Table IV): 95%
% BPB EXTRACTION @ 595 nm (COTTON, not boiled, Table IX): 93%
% Extraction @ 595 nm (COTTON, not boiled, Table VI): 94%
% BPB EXTRACTION @ 595 nm (COTTON, not boiled, Table VII): 95%
% BPB EXTRACTION @ 595 nm (COTTON, not boiled, oven dried 130° C. 5 minutes, Table XV): 93%
% Extraction @ 595 nm (NYLON, boiled 30 minutes, Table I): 45%
% BPB EXTRACTION @ 595 nm (NYLON, boiled 30 minutes, Table III): 20%
% Extraction @ 595 nm (NYLON, boiled 30 minutes, Table IV): 45%
% BPB EXTRACTION @ 595 nm (NYLON, boiled 30 minutes, Table XV): 30%
Boiling Durability % BPB EXTRACTION @ 595 nm (NYLON, boiled 30 minutes, Table XVII): 26%
% BPB Extraction (change on boiling) (NYLON, Table I): −37%
% EXTRACTION CHANGE (NYLON, Table III): −57%
% BPB EXTRACTION CHANGE (NYLON, Table IV): −25%
% EXTRACTION CHANGE (NYLON, Table IX): −66%
EXTRACTION CHANGE (NYLON, Table VI): −71%
% EXTRACTION CHANGE (NYLON, Table VII): −69%
% EXTRACTION CHANGE (NYLON, Table XV): −59%
% EXTRACTION CHANGE (NYLON, Table XVII): −54%
% BPB EXTRACTION @ 595 nm (NYLON, boiled, Table VII): 18%
% Extraction @ 595 nm (NYLON, not boiled, Table I): 82%
% BPB EXTRACTION @ 595 nm (NYLON, not boiled, Table III): 77%
% Extraction @ 595 nm (NYLON, not boiled, Table IV): 70%
% Extraction @ 595 nm (NYLON, not boiled, Table VI): 82%
% BPB EXTRACTION @ 595 nm (NYLON, not boiled, Table VII): 87%
% BPB EXTRACTION @ 595 nm (NYLON, not boiled, oven dried 130° C. 5 minutes, Table XV): 89%
Boiling Durability - % BPB Extraction (Nylon): 14.42%
Boiling Durability - % BPB Extraction (Nylon, treatment at pH = 11): 17.83%
Boiling Durability - % BPB Extraction (PET Staple): 6.82%
Boiling Durability - % BPB Extraction (PET Staple, treatment at pH = 11): 37.6%
Strike Rate - % BPB Extraction (PET Staple, 0.25 grams of fabric): 17.36%
Boiling Durability - % BPB Extraction (PET, treatment at pH = 11): 14.38%
Strike Rate - % BPB Extraction (PET, 0.25 grams of fabric): 4.98%
% Extraction @ 595 nm (PET, boiled 30 minutes, Table I): 18%
% BPB EXTRACTION @ 595 nm (PET, boiled 30 minutes, Table III): 20%
% Extraction @ 595 nm (PET, boiled 30 minutes, Table VI): 26%
Boiling Durability % BPB EXTRACTION @ 595 nm (PET, boiled 30 minutes, Table XVII): 19%
% BPB Extraction (change on boiling) (PET, Table I): −71%
% EXTRACTION CHANGE (PET, Table III): −74%
% EXTRACTION CHANGE (PET, Table IX): −73%
EXTRACTION CHANGE (PET, Table VI): −63%
% EXTRACTION CHANGE (PET, Table VII): −72%
% EXTRACTION CHANGE (PET, Table XV): −50%
% BPB EXTRACTION @ 595 nm (PET, boiled, Table IX): 14%
% BPB EXTRACTION @ 595 nm (PET, boiled, Table VII): 91%
% Extraction @ 595 nm (PET, not boiled, Table I): 89%
% BPB EXTRACTION @ 595 nm (PET, not boiled, Table IX): 87%
% Extraction @ 595 nm (PET, not boiled, Table VI): 89%
% BPB EXTRACTION @ 595 nm (PET, not boiled, Table VII): 93%
Boiling Durability % BPB EXTRACTION @ 595 nm (PET, not boiled, Table XVII): 83%
% BPB EXTRACTION @ 595 nm (PET, not boiled, oven dried 130° C. 5 minutes, Table XV): 86%
% BPB EXTRACTION @ 595 nm (PPNW, boiled 30 minutes, Table XV): 45%
Boiling Durability % BPB EXTRACTION @ 595 nm (PPNW, boiled 30 minutes, Table XVII): 37%
% EXTRACTION CHANGE (PPNW, Table XV): −40%
% EXTRACTION CHANGE (PPNW, Table XVII): −40%
Boiling Durability % BPB EXTRACTION @ 595 nm (PPNW, not boiled, Table XVII): 77%
% BPB EXTRACTION @ 595 nm (PPNW, not boiled, oven dried 130° C. 5 minutes, Table XV): 85%
% Extraction @ 595 nm (RAYON, boiled 30 minutes, Table I): 35%
% BPB EXTRACTION @ 595 nm (RAYON, boiled 30 minutes, Table III): 50%
% Extraction @ 595 nm (RAYON, boiled 30 minutes, Table VI): 44%
% BPB Extraction (change on boiling) (RAYON, Table I): −55%
% EXTRACTION CHANGE (RAYON, Table III): −44%
% EXTRACTION CHANGE (RAYON, Table IX): −40%
EXTRACTION CHANGE (RAYON, Table VI): −50%
% EXTRACTION CHANGE (RAYON, Table VII): −50%
% BPB EXTRACTION @ 595 nm (RAYON, boiled, Table IX): 52%
% BPB EXTRACTION @ 595 nm (RAYON, boiled, Table VII): 42%
% Extraction @ 595 nm (RAYON, not boiled, Table I): 90%
% BPB EXTRACTION @ 595 nm (RAYON, not boiled, Table III): 94%
% BPB EXTRACTION @ 595 nm (RAYON, not boiled, Table IX): 92%
% Extraction @ 595 nm (RAYON, not boiled, Table VI): 94%
% BPB EXTRACTION @ 595 nm (RAYON, not boiled, Table VII): 92%
Boiling Durability - % BPB Extraction (Rayon): 9.88%
Boiling Durability - % BPB Extraction (Rayon, treatment at pH = 11): 21.36%
Strike Rate - % BPB Extraction (Rayon, treatment at pH = 11): 19.5%
Boiled in H20 % Extraction (cure: 130° C. for 5 Min): 21%
Change % Extraction (cure: 130° C. for 5 Min): −36%
No Boil % Extraction (cure: 130° C. for 5 Min): 57%
Boiled in H20 % Extraction (cure: Air Dried): 21%
Change % Extraction (cure: Air Dried): −46%
No Boil % Extraction (cure: Air Dried): 67%
